Where “and” joins values, the source holds several entries; their conditions need not be identical. Identical values can stand only once. Inconclusive results and toxic doses are left out.
System: CD2F1 mice, L1210 leukemia ip, survival T/C
Assay: NCI In Vivo Anticancer Drug Screen. Data for tumor model L1210 Leukemia (intraperitoneal) in CD2F1 (CDF1) mice
Conditions: higher = longer survival
In short: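 In this screen, transplantable tumors were grown in mice given either the compound or its vehicle. Results were expressed as the treated measurement relative to the control measurement.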

Structure (SMILES): C[CH2][Sn]([Cl])([CH2]C)[c]1cc[c]([Sn]([Cl])([CH2]C)[CH2]C)cc1
- T/C (endpoint: median survival time, dose: 0.06 mg/kg/injection, schedule: Q01DX005 (ip), vehicle: Klucel (hydroxypropylcellulose) (HPC)): 103 % of control
- T/C (endpoint: median survival time, dose: 0.12 mg/kg/injection, schedule: Q01DX005 (ip), vehicle: Klucel (hydroxypropylcellulose) (HPC)): 112 % of control
- T/C (endpoint: median survival time, dose: 3.8 micrograms/kg/injection, schedule: Q01DX005 (ip), vehicle: Klucel (hydroxypropylcellulose) (HPC)): 103 % of control
- T/C (endpoint: median survival time, dose: 7.5 micrograms/kg/injection, schedule: Q01DX005 (ip), vehicle: Klucel (hydroxypropylcellulose) (HPC)): 100 % of control
- T/C (endpoint: median survival time, dose: 15.0 micrograms/kg/injection, schedule: Q01DX005 (ip), vehicle: Klucel (hydroxypropylcellulose) (HPC)): 102 % of control
- T/C (endpoint: median survival time, dose: 30.0 micrograms/kg/injection, schedule: Q01DX005 (ip), vehicle: Klucel (hydroxypropylcellulose) (HPC)): 98 % of control
- T/C (endpoint: median survival time, dose: 60.0 micrograms/kg/injection, schedule: Q01DX005 (ip), vehicle: Klucel (hydroxypropylcellulose) (HPC)): 103 % of control
- T/C (endpoint: median survival time, dose: 120.0 micrograms/kg/injection, schedule: Q01DX005 (ip), vehicle: Klucel (hydroxypropylcellulose) (HPC)): 109 % of control

Structure (SMILES): Nc1nc(=S)c2[nH]cnc2[nH]1
- T/C (endpoint: mean survival time, dose: 0.13 mg/kg/injection, schedule: Q01DX009 (ip), vehicle: other): 110 % of control
- T/C (endpoint: mean survival time, dose: 0.25 mg/kg/injection, schedule: Q01DX009 (ip), vehicle: alkali diluted with saline): 114 % of control and 120 % of control
- T/C (endpoint: mean survival time, dose: 0.25 mg/kg/injection, schedule: Q01DX009 (ip), vehicle: other): 121 % of control
- T/C (endpoint: mean survival time, dose: 0.38 mg/kg/injection, schedule: Q01DX009 (ip), vehicle: acid diluted with saline): 116 % of control and 123 % of control
- T/C (endpoint: mean survival time, dose: 0.5 mg/kg/injection, schedule: Q01DX005 (ip), vehicle: water): 116 % of control
- T/C (endpoint: mean survival time, dose: 0.5 mg/kg/injection, schedule: Q01DX009 (ip), vehicle: alkali diluted with saline): 124 % of control
- T/C (endpoint: mean survival time, dose: 0.5 mg/kg/injection, schedule: Q01DX009 (ip), vehicle: other): 121 % of control
- T/C (endpoint: mean survival time, dose: 0.66 mg/kg/injection, schedule: Q01DX009 (ip), vehicle: clinical formulation): 150 % of control
- T/C (endpoint: mean survival time, dose: 0.75 mg/kg/injection, schedule: Q01DX009 (ip), vehicle: acid diluted with saline): 164 % of control
- T/C (endpoint: mean survival time, dose: 1.0 mg/kg/injection, schedule: Q01DX005 (ip), vehicle: alkali diluted with saline): 163 % of control
- T/C (endpoint: mean survival time, dose: 1.0 mg/kg/injection, schedule: Q01DX005 (ip), vehicle: water): 120 % of control
- T/C (endpoint: mean survival time, dose: 1.0 mg/kg/injection, schedule: Q01DX007 (ip), vehicle: saline): 151 % of control
- T/C (endpoint: mean survival time, dose: 1.0 mg/kg/injection, schedule: Q03DX003 (ip), vehicle: saline): 152 % of control
- T/C (endpoint: mean survival time, dose: 1.0 mg/kg/injection, schedule: Q04DX003 (ip), vehicle: saline): 154 % of control
- T/C (endpoint: mean survival time, dose: 1.12 mg/kg/injection, schedule: Q04DX003 (ip), vehicle: acid diluted with saline): 116 % of control and 118 % of control
- T/C (endpoint: mean survival time, dose: 1.2 mg/kg/injection, schedule: Q01DX009 (ip), vehicle: alkali diluted with saline): 152 % of control and 153 % of control
- T/C (endpoint: mean survival time, dose: 1.47 mg/kg/injection, schedule: Q01DX009 (ip), vehicle: clinical formulation): 150 % of control
- T/C (endpoint: mean survival time, dose: 1.47 mg/kg/injection, schedule: Q01DX009 (ip), vehicle: saline): 158 % of control
- T/C (endpoint: mean survival time, dose: 1.5 mg/kg/injection, schedule: Q01DX009 (ip), vehicle: acid diluted with saline): 164 % of control and 171 % of control and 180 % of control
- T/C (endpoint: mean survival time, dose: 1.56 mg/kg/injection, schedule: Q01DX005 (ip), vehicle: alkali diluted with saline): 159 % of control
- T/C (endpoint: mean survival time, dose: 1.8 mg/kg/injection, schedule: Q01DX009 (ip), vehicle: alkali diluted with saline): 151 % of control
- T/C (endpoint: mean survival time, dose: 2.0 mg/kg/injection, schedule: Q01DX005 (ip), vehicle: alkali diluted with saline): 158 % of control
- T/C (endpoint: mean survival time, dose: 2.0 mg/kg/injection, schedule: Q03DX003 (ip), vehicle: saline): 160 % of control
- T/C (endpoint: mean survival time, dose: 2.0 mg/kg/injection, schedule: Q04DX003 (ip), vehicle: alkali diluted with saline): 122 % of control
- T/C (endpoint: mean survival time, dose: 2.0 mg/kg/injection, schedule: Q04DX003 (ip), vehicle: saline): 160 % of control
- T/C (endpoint: mean survival time, dose: 2.2 mg/kg/injection, schedule: Q01DX009 (ip), vehicle: clinical formulation): 155 % of control
- T/C (endpoint: mean survival time, dose: 3.0 mg/kg/injection, schedule: Q01DX009 (ip), vehicle: alkali diluted with saline): 536 % of control
- T/C (endpoint: mean survival time, dose: 3.12 mg/kg/injection, schedule: Q01DX005 (ip), vehicle: alkali diluted with saline): 188 % of control
- T/C (endpoint: mean survival time, dose: 4.0 mg/kg/injection, schedule: Q01DX005 (ip), vehicle: alkali diluted with saline): 150 % of control
- T/C (endpoint: mean survival time, dose: 4.0 mg/kg/injection, schedule: Q01DX007 (ip), vehicle: saline): 152 % of control
- T/C (endpoint: mean survival time, dose: 4.0 mg/kg/injection, schedule: Q01DX009 (ip), vehicle: acid diluted with saline): 122 % of control
- T/C (endpoint: mean survival time, dose: 4.0 mg/kg/injection, schedule: Q03DX003 (ip), vehicle: saline): 156 % of control
- T/C (endpoint: mean survival time, dose: 4.0 mg/kg/injection, schedule: Q04DX003 (ip), vehicle: saline): 176 % of control
- T/C (endpoint: mean survival time, dose: 4.5 mg/kg/injection, schedule: Q04DX003 (ip), vehicle: acid diluted with saline): 161 % of control
- T/C (endpoint: mean survival time, dose: 6.25 mg/kg/injection, schedule: Q01DX005 (ip), vehicle: alkali diluted with saline): 159 % of control
- T/C (endpoint: mean survival time, dose: 9.0 mg/kg/injection, schedule: Q04DX003 (ip), vehicle: acid diluted with saline): 166 % of control
- T/C (endpoint: mean survival time, dose: 12.5 mg/kg/injection, schedule: Q01DX005 (ip), vehicle: alkali diluted with saline): 119 % of control
- T/C (endpoint: mean survival time, dose: 18.0 mg/kg/injection, schedule: Q04DX003 (ip), vehicle: acid diluted with saline): 176 % of control
- T/C (endpoint: mean survival time, dose: 20.0 mg/kg/injection, schedule: Q04DX003 (ip), vehicle: alkali diluted with saline): 152 % of control
- T/C (endpoint: mean survival time, dose: 23.0 mg/kg/injection, schedule: Q01DX001 (ip), vehicle: alkali diluted with saline): 158 % of control
- T/C (endpoint: mean survival time, dose: 25.0 mg/kg/injection, schedule: Q01DX005 (ip), vehicle: alkali diluted with saline): 96 % of control
- T/C (endpoint: mean survival time, dose: 31.0 mg/kg/injection, schedule: Q01DX001 (ip), vehicle: alkali diluted with saline): 161 % of control
- T/C (endpoint: mean survival time, dose: 47.0 mg/kg/injection, schedule: Q01DX001 (ip), vehicle: alkali diluted with saline): 167 % of control
- T/C (endpoint: median survival time, dose: 0.86 mg/kg/injection, schedule: Q01DX009 (ip), vehicle: acid diluted with saline): 152 % of control and 154 % of control
- T/C (endpoint: median survival time, dose: 1.44 mg/kg/injection, schedule: Q01DX009 (ip), vehicle: acid diluted with saline): 160 % of control
- T/C (endpoint: median survival time, dose: 2.4 mg/kg/injection, schedule: Q01DX009 (ip), vehicle: acid diluted with saline): 158 % of control
- T/C (endpoint: median survival time, dose: 2.7 mg/kg/injection, schedule: Q04DX003 (ip), vehicle: alkali diluted with saline): 159 % of control
- T/C (endpoint: median survival time, dose: 4.0 mg/kg/injection, schedule: Q01DX009 (ip), vehicle: acid diluted with saline): 151 % of control and 152 % of control
- T/C (endpoint: median survival time, dose: 4.5 mg/kg/injection, schedule: Q04DX003 (ip), vehicle: alkali diluted with saline): 172 % of control
- T/C (endpoint: median survival time, dose: 7.5 mg/kg/injection, schedule: Q04DX003 (ip), vehicle: alkali diluted with saline): 191 % of control
- T/C (endpoint: median survival time, dose: 12.5 mg/kg/injection, schedule: Q04DX003 (ip), vehicle: alkali diluted with saline): 187 % of control
- T/C (endpoint: median survival time, dose: 20.0 mg/kg/injection, schedule: Q04DX003 (ip), vehicle: alkali diluted with saline): 151 % of control
- T/C (endpoint: median survival time, dose: 20.83 mg/kg/injection, schedule: Q04DX003 (ip), vehicle: alkali diluted with saline): 166 % of control
- T/C (endpoint: median survival time, dose: 40.0 mg/kg/injection, schedule: Q01DX001 (ip), vehicle: alkali diluted with saline): 150 % of control and 161 % of control
- T/C (endpoint: median survival time, dose: 60.0 mg/kg/injection, schedule: Q01DX001 (ip), vehicle: alkali diluted with saline): 183 % of control
